# Like-named read-outs stand apart in the source and are kept apart here.
# Assays:
# [1] = system: overweight or obese subjects with type 2 diabetes mellitus (T2DM); assay: Multiple-ascending dose study Part II (Cohorts 5 and 6); assay type: in vivo, human; details: for Fasting Glucose (change) / Glucose AUG (change) / Weight (change): n = 12 active
# Protocol: A randomized, double-blind, multiple-ascending dose study is performed. This study consists of 2 cohorts: cohort 5 and cohort 6.
# The study consists of an inpatient up-titration evaluation period beginning on Day 3 for both Cohorts 5 and 6 and an outpatient follow-up period. The first 4 days and the final day of dosing at 300 μg are inpatient.
# Subjects have a second inpatient period for the initiation of the 300 μg dose ending on the fourth day at that dose followed by at-home self administration.
# Additional time points include before commencing the 300 μg dose (Day 16 for Cohort 5 and Day 11 for Cohort 6), and at the end of dosing (Day 22 for Cohort 5 and Day 17 for Cohort 6).
# [2] = assay type: in vitro ADME, human; details: human, 24 h, 2 μmol/L
# Protocol: (§1) Stability testing of peptides in plasma.
# (§2) Stock solutions of the peptides of about 200 μmol/L was prepared by weighing solid peptide into a Eppendorf Low Bind Tube and dissolved in DMSO. 10 μL of stock solutions were added to 990 μL of plasma in an Eppendorf Low Bind Tube, resulting in initial concentrations of the peptides in plasma of about 2 μmol/L. The frozen blank plasma from human, rat and mouse had been thawed and heated to a temperature of 37° C. before addition of the stock solution. The spiked plasma samples were gently mixed and allowed to equilibrate for about 5 minutes before start of experiment. The plasma samples were incubated for 48 hours in a GalaxyR CO2 incubator at 37° C. Sampling (30 μL) was performed at 0, 1, 2, 6.5, 17, 24 and 48 hours. The samples were stored at −70° C. until analysis.
# (§3) Plasma samples were assayed as follows. The 30 μL plasma samples were protein precipitated with […] of cold ethanol in a 96-well low bind plate (Eppendorf Protein LoBind). After mixing and centrifugation, 100 μl the supernatant was transferred to a new plate and 1 μl was injected onto an analytical column.
# (§4) The analysis was performed using a μLC-system (LC Exigent μLC) coupled to a medium high resolution mass spectrometer (Perkin Elmer PenTOF) with positive electrospray ionisation. The analytical column was a 5 cm, 1 mm Agilent Poroshell (custom made) C18-column with a particle size of 2.7 μm. Flow: 0.1 ml/min using a slow reversed phase gradient. Mobile phases used were acetonitrile and water containing 0.1% formic acid.
# The resulting data were manually evaluated for the following degradation products: +1 product (acid) and the DPP IV-cleavage product. Products with +1 mass may arise from deamidation at amide groups of glutamine or at the C-terminus. Cleavage products arise from the action of the protease DPP IV in plasma. Both the degradation of the peptides and formation of peptide products were reported in percentage of the initial peptide concentration. Peaks were integrated and % remaining peptide was calculated: (peak area/peak area 0H)*100. Levels of deamidation and DPP IV cleavage were low for G797 and G933.
# [3] = Stability testing of peptides in plasma; assay type: in vitro ADME, mouse; details: mouse, 24 h, 2 μmol/L
# Protocol: as §1, §2, §3, §4
# The resulting data were manually evaluated for the following degradation products: +1 product (acid) and the DPP IV-cleavage product. Products with +1 mass may arise from deamidation at amide groups of glutamine or at the C-terminus. Cleavage products arise from the action of the protease DPP IV in plasma. Both the degradation of the peptides and formation of peptide products were reported in percentage of the initial peptide concentration. Peaks were integrated and % remaining peptide was calculated: (peak area/peak area 0H)*100. […]
smiles,measurement,setting,value
CCCCCCCCCCCCCCCC(=O)N[C@@H](CCC(=O)NCCCC[C@H](NC(=O)[C@H](CC(=O)O)NC(=O)[C@H](CO)NC(=O)C(NC(=O)[C@H](Cc1ccccc1)NC(=O)C(NC(=O)CNC(=O)[C@H](CCC(N)=O)NC(=O)[C@H](CO)NC(=O)[C@@H](N)Cc1cnc[nH]1)[C@@H](C)O)[C@@H](C)O)C(=O)N[C@@H](CO)C(=O)N[C@@H](CCC(=O)O)C(=O)N[C@@H](Cc1ccc(O)cc1)C(=O)N[C@@H](CC(C)C)C(=O)N[C@@H](CC(=O)O)C(=O)N[C@@H](CO)C(=O)N[C@@H](CCC(=O)O)C(=O)N[C@@H](CCCNC(=N)N)C(=O)N[C@@H](C)C(=O)N[C@@H](CCCNC(=N)N)C(=O)N[C@@H](CC(=O)O)C(=O)N[C@@H](Cc1ccccc1)C(=O)N[C@H](C(=O)N[C@@H](C)C(=O)N[C@@H](Cc1c[nH]c2ccccc12)C(=O)N[C@@H](CC(C)C)C(=O)N[C@@H](CCC(=O)O)C(=O)N[C@@H](C)C(=O)NCC(=O)NCC(=O)O)C(C)C)C(=O)O (stereo partly shown) [Peptide G933],glucose AUC reduction,"[1]; Cohort 5 (100/150/200/300 μg, 22 days)",41.7%
same,Fasting Glucose (change),"[1]; Cohort 5, 300 ug",-24.40 mg/dL
same,Glucose AUG (change),"[1]; Cohort 5, 300 ug",−33.7
same,Weight (change),"[1]; Cohort 5, 300 ug, difference to placebo after 22 days",-2.11 kg
same,weight loss difference vs placebo,"[1]; Cohort 5, 22 days",2.11 kg
same,heart rate increase from baseline,"[1]; Cohort 5, 22 days administration",approximately 7.6 BPM
same,weight lost,"[1]; Cohort 5, after 22 days",about 3.09 kg
same,glucose AUC reduction,"[1]; Cohort 6 (100/200/300 μg, 17 days)",35.8%
same,Fasting Glucose (change),"[1]; Cohort 6, 300 ug",-36.94 mg/dL
same,Glucose AUG (change),"[1]; Cohort 6, 300 ug",−28.9
same,Weight (change),"[1]; Cohort 6, 300 ug, difference to placebo after 17 days",-1.88 kg
same,patients who vomited,"[1]; Cohort 6, 1 patient",8.3%
same,weight loss difference vs placebo,"[1]; Cohort 6, 17 days",1.88 kg
same,heart rate increase from baseline,"[1]; Cohort 6, 17 days administration",approximately 5.9 BPM
same,weight lost,"[1]; Cohort 6, after 17 days",about 2.23 kg
same,deaths or serious adverse events,[1]; Cohorts 5 and 6,No deaths or serious adverse events were observed
same,rate of vomiting,"[1]; Cohorts 5 and 6 together, 4/24",16%
same,rate of nausea,"[1]; Cohorts 5 and 6 together, 8/24",33%
same,% DPP cleaved product/+1 DPP cleaved product,[2],<1%
same,% stable peptide,[2],86%
same,Levels of deamidation and DPP IV cleavage,"[2]; rat, mouse",low
same,% stable peptide,[3],83%
